Experimental data reported in ChEMBL document CHEMBL2401728, “An unexpected Dimroth rearrangement leading to annelated thieno[3,2-d][1,2,3]triazolo[1,5-a]pyrimidines with potent antitumor activity” (Eur J Med Chem, 2013).

Legend:
[1] = Cytotoxicity against human non-small cell lung cancer cells assessed as cellular growth at 10 uM after 48 hrs by SRB assay relative to control; format: functional, Cancer cell lines
[2] = Cytotoxicity against human melanoma cells assessed as cellular growth at 10 uM after 48 hrs by SRB assay relative to control; format: functional, Melanoma cell
[3] = Cytotoxicity against human leukemia cells assessed as cellular growth at 10 uM after 48 hrs by SRB assay relative to control; format: functional, Leukemia cell
SNB-75 = assay: Cytotoxicity against human SNB75 cells assessed as cellular growth at 0.01 uM after 48 hrs by SRB assay relative to control; format: functional
A549 = assay: Cytotoxicity against human A549 cells assessed as cellular growth at 0.01 uM after 48 hrs by SRB assay relative to control; format: functional
SR = assay: Cytotoxicity against human SR cells assessed as cellular growth at 0.01 uM after 48 hrs by SRB assay relative to control; format: functional
UACC-257 = assay: Cytotoxicity against human UACC257 cells assessed as cellular growth at 100 uM after 48 hrs by SRB assay relative to control; format: functional
MDA-MB-435 = assay: Cytotoxicity against human MDA-MB-435 cells assessed as cellular growth at 100 uM after 48 hrs by SRB assay relative to control; format: functional
LOX IMVI = assay: Cytotoxicity against human LOXIMVI cells assessed as cellular growth at 100 uM after 48 hrs by SRB assay relative to control; format: functional
HOP-92 = assay: Cytotoxicity against human HOP92 cells assessed as cellular growth at 100 uM after 48 hrs by SRB assay relative to control; format: functional
CCRF-CEM = assay: Cytotoxicity against human CCRF-CEM cells assessed as cellular growth at 100 uM after 48 hrs by SRB assay relative to control; format: functional
Hs-578T [4] = assay: Cytotoxicity against human Hs578T cells assessed as cellular growth at 10 uM after 48 hrs by SRB assay relative to control; format: functional
Mus musculus = assay: Toxicity in mouse at 100 to 400 mg/kg measured for 2 weeks; format: organism-based; set-up: dose 100-400 mg/kg; conditions: in vivo, 336 h
SK-MEL-28 = assay: Cytotoxicity against human SK-MEL-28 cells assessed as cellular growth at 10 uM after 48 hrs by SRB assay relative to control; format: functional
MDA-MB-468 = assay: Cytotoxicity against human MDA-MB-468 cells after 48 hrs by SRB assay; format: functional; conditions: MDA-MB-468, 48 h
Hs-578T [5] = assay: Cytotoxicity against human Hs578T cells assessed as cellular growth at 1 uM after 48 hrs by SRB assay relative to control; format: functional
SK-MEL-5 [6] = assay: Cytotoxicity against human SK-MEL-5 cells assessed as cellular growth at 1 uM after 48 hrs by SRB assay relative to control; format: functional
ACHN [7] = assay: Cytotoxicity against human ACHN cells after 48 hrs by SRB assay; format: functional
UACC-62 = assay: Cytotoxicity against human UACC62 cells after 48 hrs by SRB assay; format: functional; conditions: UACC-62, 48 h
SNB-19 = assay: Cytotoxicity against human SNB19 cells after 48 hrs by SRB assay; format: functional; conditions: SNB-19, 48 h
NCI-H522 = assay: Cytotoxicity against human NCI-H522 cells after 48 hrs by SRB assay; format: functional; conditions: NCI-H522, 48 h
HOP-62 = assay: Cytotoxicity against human HOP62 cells after 48 hrs by SRB assay; format: functional; conditions: HOP-62, 48 h
K562 = assay: Cytotoxicity against human K562 cells after 48 hrs by SRB assay; format: functional; conditions: K562, 48 h
OVCAR-8 = assay: Cytotoxicity against human OVCAR8 cells assessed as cellular growth at 0.1 uM after 48 hrs by SRB assay relative to control; format: functional
SK-MEL-5 [8] = assay: Cytotoxicity against human SK-MEL-5 cells assessed as cellular growth at 0.1 uM after 48 hrs by SRB assay relative to control; format: functional
HCT-15 = assay: Cytotoxicity against human HCT15 cells assessed as cellular growth at 0.1 uM after 48 hrs by SRB assay relative to control; format: functional
NCI-H322M = assay: Cytotoxicity against human NCI-H322M cells assessed as cellular growth at 0.1 uM after 48 hrs by SRB assay relative to control; format: functional
HL-60(TB) = assay: Cytotoxicity against human HL-60(TB) cells assessed as cellular growth at 0.1 uM after 48 hrs by SRB assay relative to control; format: functional
DU-145 = assay: Cytotoxicity against human DU145 cells assessed as cellular growth at 0.01 uM after 48 hrs by SRB assay relative to control; format: functional
PC-3 = assay: Cytotoxicity against human PC3 cells assessed as cellular growth at 0.01 uM after 48 hrs by SRB assay relative to control; format: functional
RXF 393 = assay: Cytotoxicity against human RXF393 cells assessed as cellular growth at 0.01 uM after 48 hrs by SRB assay relative to control; format: functional
ACHN [9] = assay: Cytotoxicity against human ACHN cells assessed as cellular growth at 0.01 uM after 48 hrs by SRB assay relative to control; format: functional
RPMI-8226 = assay: Cytotoxicity against human RPMI8226 cells assessed as cellular growth at 100 uM after 48 hrs by SRB assay relative to control; format: functional
MOLT-4 [10] = assay: Cytotoxicity against human MOLT4 cells assessed as cellular growth at 1 uM after 48 hrs by SRB assay relative to control; format: functional
HCC 2998 = assay: Cytotoxicity against human HCC2998 cells assessed as cellular growth at 0.1 uM after 48 hrs by SRB assay relative to control; format: functional
MOLT-4 [11] = assay: Cytotoxicity against human MOLT4 cells assessed as cellular growth at 0.1 uM after 48 hrs by SRB assay relative to control; format: functional
[12] = read-out: LC50 (the source's name)
[13] = read-out: pLC50 (the source's name) (converted)

## O=C(O)CCCn1c2c(sc3ccccc32)c(=O)n2nnc(-c3ccccc3)c12
[1]
  Activity: 85%
[2]
  Activity: 95%
[3]
  Activity: 102%

## O=C(CCCn1c2c(sc3ccccc32)c(=O)n2nnc(-c3ccccc3)c12)NCCc1c[nH]cn1
SNB-75
  Activity: 103%
A549
  Activity: 103%
SR
  Activity: 108%
UACC-257
  Activity: -80%
MDA-MB-435
  Activity: -76%
LOX IMVI
  Activity: -100%
HOP-92
  Activity: -50%
CCRF-CEM
  Activity: -100%
Hs-578T [4]
  Activity: -50%
Mus musculus
  Activity: Non-toxic
SK-MEL-28
  Activity: -92%
MDA-MB-468; read-out: GI50
  GI50: 0.339 µM
MDA-MB-468; [12]
  CC50: 3.77 µM
MDA-MB-468; read-out: TGI
  TGI: 1.21 µM
MDA-MB-468; read-out: pGI50 (converted)
  GI50: 0.339 µM
MDA-MB-468; [13]
  CC50: 3.8 µM
MDA-MB-468; read-out: pTGI (converted)
  TGI: 1.2 µM
Hs-578T [5]
  Activity: 70%
SK-MEL-5 [6]
  Activity: 70%
ACHN [7]; read-out: GI50
  GI50: 1.58 µM
ACHN [7]; [12]
  CC50: 6.26 µM
ACHN [7]; read-out: TGI
  TGI: 3.14 µM
ACHN [7]; read-out: pGI50 (converted)
  GI50: 1.58 µM
ACHN [7]; [13]
  CC50: 6.31 µM
ACHN [7]; read-out: pTGI (converted)
  TGI: 3.16 µM
UACC-62; read-out: GI50
  GI50: 1.81 µM
UACC-62; [12]
  CC50: 7.01 µM
UACC-62; read-out: TGI
  TGI: 3.56 µM
UACC-62; read-out: pGI50 (converted)
  GI50: 1.82 µM
UACC-62; [13]
  CC50: 7.08 µM
UACC-62; read-out: pTGI (converted)
  TGI: 3.55 µM
SNB-19; read-out: GI50
  GI50: 5.12 µM
SNB-19; [12]
  CC50: 54.3 µM
SNB-19; read-out: TGI
  TGI: 22.1 µM
SNB-19; read-out: pGI50 (converted)
  GI50: 5.13 µM
SNB-19; [13]
  CC50: 53.7 µM
SNB-19; read-out: pTGI (converted)
  TGI: 21.9 µM
NCI-H522; read-out: GI50
  GI50: 0.0435 µM
NCI-H522; [12]
  CC50: > 100 µM
NCI-H522; read-out: TGI
  TGI: 3.11 µM
NCI-H522; read-out: pGI50 (converted)
  GI50: 0.0437 µM
NCI-H522; read-out: pTGI (converted)
  TGI: 3.09 µM
HOP-62; read-out: GI50
  GI50: 1.31 µM
HOP-62; [12]
  CC50: 6.32 µM
HOP-62; read-out: TGI
  TGI: 2.87 µM
HOP-62; read-out: pGI50 (converted)
  GI50: 1.32 µM
HOP-62; [13]
  CC50: 6.31 µM
HOP-62; read-out: pTGI (converted)
  TGI: 2.88 µM
K562; read-out: GI50
  GI50: 0.0227 µM
K562; [12]
  CC50: 5.18 µM
K562; read-out: TGI
  TGI: 1.02 µM
K562; read-out: pGI50 (converted)
  GI50: 0.0229 µM
K562; [13]
  CC50: 5.13 µM
K562; read-out: pTGI (converted)
  TGI: 1.02 µM
OVCAR-8
  Activity: 33%
SK-MEL-5 [8]
  Activity: 90%
HCT-15
  Activity: 78%
NCI-H322M
  Activity: 78%
HL-60(TB)
  Activity: 43%
DU-145
  Activity: 105%
PC-3
  Activity: 86%
RXF 393
  Activity: 118%
ACHN [9]
  Activity: 104%

## CN1CCN(CCCn2c3c(sc4ncccc43)c(=O)n3nnc(-c4ccccc4)c23)CC1
SNB-75
  Activity: 76%
A549
  Activity: 97%
SR
  Activity: 100%
UACC-257
  Activity: -87%
MDA-MB-435
  Activity: -83%
LOX IMVI
  Activity: -46%
HOP-92
  Activity: -67%
RPMI-8226
  Activity: -46%
CCRF-CEM
  Activity: -49%
Hs-578T [4]
  Activity: 69%
SK-MEL-28
  Activity: 87%
MDA-MB-468; read-out: GI50
  GI50: 1.82 µM
MDA-MB-468; [12]
  CC50: 5.96 µM
MDA-MB-468; read-out: TGI
  TGI: 3.29 µM
MDA-MB-468; read-out: pGI50 (converted)
  GI50: 1.82 µM
MDA-MB-468; [13]
  CC50: 6.03 µM
MDA-MB-468; read-out: pTGI (converted)
  TGI: 3.31 µM
Hs-578T [5]
  Activity: 96%
SK-MEL-5 [6]
  Activity: 93%
MOLT-4 [10]
  Activity: 92%
ACHN [7]; read-out: GI50
  GI50: 1.63 µM
ACHN [7]; [12]
  CC50: 6.79 µM
ACHN [7]; read-out: TGI
  TGI: 3.32 µM
ACHN [7]; read-out: pGI50 (converted)
  GI50: 1.62 µM
ACHN [7]; [13]
  CC50: 6.76 µM
ACHN [7]; read-out: pTGI (converted)
  TGI: 3.31 µM
UACC-62; read-out: GI50
  GI50: 16.6 µM
UACC-62; [12]
  CC50: 71 µM
UACC-62; read-out: TGI
  TGI: 34.3 µM
UACC-62; read-out: pGI50 (converted)
  GI50: 16.6 µM
UACC-62; [13]
  CC50: 70.8 µM
UACC-62; read-out: pTGI (converted)
  TGI: 34.7 µM
SNB-19; read-out: GI50
  GI50: 2.5 µM
SNB-19; [12]
  CC50: > 100 µM
SNB-19; read-out: TGI
  TGI: 5.62 µM
SNB-19; read-out: pGI50 (converted)
  GI50: 2.51 µM
SNB-19; [13]
  CC50: > 100 µM
SNB-19; read-out: pTGI (converted)
  TGI: 5.62 µM
NCI-H522; read-out: GI50
  GI50: 1.92 µM
NCI-H522; read-out: TGI
  TGI: 3.7 µM
NCI-H522; read-out: pGI50 (converted)
  GI50: 1.91 µM
NCI-H522; read-out: pTGI (converted)
  TGI: 3.72 µM
HOP-62; read-out: GI50
  GI50: 1.78 µM
HOP-62; [12]
  CC50: 6.11 µM
HOP-62; read-out: TGI
  TGI: 3.3 µM
HOP-62; read-out: pGI50 (converted)
  GI50: 1.78 µM
HOP-62; [13]
  CC50: 6.17 µM
HOP-62; read-out: pTGI (converted)
  TGI: 3.31 µM
K562; read-out: GI50
  GI50: 1.91 µM
K562; [12]
  CC50: > 100 µM
K562; read-out: TGI
  TGI: 4.74 µM
K562; read-out: pGI50 (converted)
  GI50: 1.91 µM
K562; [13]
  CC50: > 100 µM
K562; read-out: pTGI (converted)
  TGI: 4.79 µM
OVCAR-8
  Activity: 94%
SK-MEL-5 [8]
  Activity: 92%
HCT-15
  Activity: 91%
HCC 2998
  Activity: 99%
NCI-H322M
  Activity: 80%
MOLT-4 [11]
  Activity: 102%
HL-60(TB)
  Activity: 91%
DU-145
  Activity: 97%
RXF 393
  Activity: 100%
ACHN [9]
  Activity: 105%
